From the supplement of paper PMC10307832

Experiments:
Test in all cases: relative viability (nuclei count vs DMSO), 5 days (fraction); higher = more cells survive
CAP-232 = compound: C[C@H]([C@@H](C(=O)N)NC(=O)[C@@H]1CSSC[C@@H](C(=O)N[C@H](C(=O)N[C@@H](C(=O)N[C@H](C(=O)N1)CCCCN)CC2=CNC3=CC=CC=C32)CC4=CC=C(C=C4)O)NC(=O)[C@@H](CC5=CC=CC=C5)N)O [CAP-232]
Outline: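 Vehicle-anchored 1536-well plates of lung cancer cell lines, held overnight at 37 °C, were pinned with five library-drug doses (not always all listed) spaced by √10. No medium change followed over the next 5 days, after which the cells were fixed, permeabilised and Hoechst-stained together and imaged at 4×. Nuclei were counted with MetaXpress, and viability is treated-well nuclei over vehicle-well nuclei, taken as a median across plates. Plates passed with control CV below 25% and at least one doubling.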

CAP-232 + Bortezomib = compound: C[C@H]([C@@H](C(=O)N)NC(=O)[C@@H]1CSSC[C@@H](C(=O)N[C@H](C(=O)N[C@@H](C(=O)N[C@H](C(=O)N1)CCCCN)CC2=CNC3=CC=CC=C32)CC4=CC=C(C=C4)O)NC(=O)[C@@H](CC5=CC=CC=C5)N)O [CAP-232] + CC(C)C[C@H](NC(=O)[C@H](Cc1ccccc1)NC(=O)c1cnccn1)B(O)O [Bortezomib] (partner 0.002 µM)
Outline: (§1)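 Values are medians from duplicate plates. Each reflects relative viability, defined as the nuclei count of treated wells over that of vehicle wells. Lung cancer cell lines in 1536-well plates were pin-tool dosed one day after seeding with one drug alone or with a fixed anchor-drug dose plus five library-drug doses (not always all listed) in √10 steps, then fixed, stained and imaged at 4× after 5 days.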

CAP-232 + Navitoclax = compound: C[C@H]([C@@H](C(=O)N)NC(=O)[C@@H]1CSSC[C@@H](C(=O)N[C@H](C(=O)N[C@@H](C(=O)N[C@H](C(=O)N1)CCCCN)CC2=CNC3=CC=CC=C32)CC4=CC=C(C=C4)O)NC(=O)[C@@H](CC5=CC=CC=C5)N)O [CAP-232] + CC1(C)CCC(c2ccc(Cl)cc2)=C(CN2CCN(c3ccc(C(=O)NS(=O)(=O)c4ccc(N[C@H](CCN5CCOCC5)CSc5ccccc5)c(S(=O)(=O)C(F)(F)F)c4)cc3)CC2)C1 [Navitoclax] (partner 0.5 µM)
Outline: as §1

CAP-232 + Foretinib = compound: C[C@H]([C@@H](C(=O)N)NC(=O)[C@@H]1CSSC[C@@H](C(=O)N[C@H](C(=O)N[C@@H](C(=O)N[C@H](C(=O)N1)CCCCN)CC2=CNC3=CC=CC=C32)CC4=CC=C(C=C4)O)NC(=O)[C@@H](CC5=CC=CC=C5)N)O [CAP-232] + COc1cc2c(Oc3ccc(NC(=O)C4(C(=O)Nc5ccc(F)cc5)CC4)cc3F)ccnc2cc1OCCCN1CCOCC1 [Foretinib] (partner 0.25 µM)
Outline: as §1

CAP-232 + Lapatinib = compound: C[C@H]([C@@H](C(=O)N)NC(=O)[C@@H]1CSSC[C@@H](C(=O)N[C@H](C(=O)N[C@@H](C(=O)N[C@H](C(=O)N1)CCCCN)CC2=CNC3=CC=CC=C32)CC4=CC=C(C=C4)O)NC(=O)[C@@H](CC5=CC=CC=C5)N)O [CAP-232] + CS(=O)(=O)CCNCc1ccc(-c2ccc3ncnc(Nc4ccc(OCc5cccc(F)c5)c(Cl)c4)c3c2)o1 [Lapatinib] (partner 2 µM)
Outline: as §1

CAP-232 + Pictilisib = compound: C[C@H]([C@@H](C(=O)N)NC(=O)[C@@H]1CSSC[C@@H](C(=O)N[C@H](C(=O)N[C@@H](C(=O)N[C@H](C(=O)N1)CCCCN)CC2=CNC3=CC=CC=C32)CC4=CC=C(C=C4)O)NC(=O)[C@@H](CC5=CC=CC=C5)N)O [CAP-232] + CS(=O)(=O)N1CCN(Cc2cc3nc(-c4cccc5[nH]ncc45)nc(N4CCOCC4)c3s2)CC1 [Pictilisib] (partner 1 µM)
Outline: as §1

CAP-232 + Crizotinib = compound: C[C@H]([C@@H](C(=O)N)NC(=O)[C@@H]1CSSC[C@@H](C(=O)N[C@H](C(=O)N[C@@H](C(=O)N[C@H](C(=O)N1)CCCCN)CC2=CNC3=CC=CC=C32)CC4=CC=C(C=C4)O)NC(=O)[C@@H](CC5=CC=CC=C5)N)O [CAP-232] + C[C@@H](Oc1cc(-c2cnn(C3CCNCC3)c2)cnc1N)c1c(Cl)ccc(F)c1Cl [Crizotinib] (partner 1 µM)
Outline: as §1

CAP-232 + Linsitinib = compound: C[C@H]([C@@H](C(=O)N)NC(=O)[C@@H]1CSSC[C@@H](C(=O)N[C@H](C(=O)N[C@@H](C(=O)N[C@H](C(=O)N1)CCCCN)CC2=CNC3=CC=CC=C32)CC4=CC=C(C=C4)O)NC(=O)[C@@H](CC5=CC=CC=C5)N)O [CAP-232] + C[C@]1(O)C[C@@H](c2nc(-c3ccc4ccc(-c5ccccc5)nc4c3)c3c(N)nccn32)C1 [Linsitinib] (partner 1 µM)
Outline: as §1

CAP-232 + Alpelisib = compound: C[C@H]([C@@H](C(=O)N)NC(=O)[C@@H]1CSSC[C@@H](C(=O)N[C@H](C(=O)N[C@@H](C(=O)N[C@H](C(=O)N1)CCCCN)CC2=CNC3=CC=CC=C32)CC4=CC=C(C=C4)O)NC(=O)[C@@H](CC5=CC=CC=C5)N)O [CAP-232] + Cc1nc(NC(=O)N2CCC[C@H]2C(N)=O)sc1-c1ccnc(C(C)(C)C(F)(F)F)c1 [Alpelisib] (partner 2 µM)
Outline: as §1

CAP-232 + Olaparib = compound: C[C@H]([C@@H](C(=O)N)NC(=O)[C@@H]1CSSC[C@@H](C(=O)N[C@H](C(=O)N[C@@H](C(=O)N[C@H](C(=O)N1)CCCCN)CC2=CNC3=CC=CC=C32)CC4=CC=C(C=C4)O)NC(=O)[C@@H](CC5=CC=CC=C5)N)O [CAP-232] + O=C(c1cc(Cc2n[nH]c(=O)c3ccccc23)ccc1F)N1CCN(C(=O)C2CC2)CC1 [Olaparib] (partner 8 µM)
Outline: as §1

## NCI-H1299
CAP-232; 0.4 µM
  relative viability: 1.03
CAP-232; 1.265 µM
  relative viability: 1.01
CAP-232; 4 µM
  relative viability: 1.04
CAP-232; 12.65 µM
  relative viability: 1.02
CAP-232 + Bortezomib; first compound 0.4 µM
  relative viability: 1.02
CAP-232 + Bortezomib; first compound 1.265 µM
  relative viability: 1.02
CAP-232 + Bortezomib; first compound 4 µM
  relative viability: 1.06
CAP-232 + Bortezomib; first compound 12.65 µM
  relative viability: 1.01
CAP-232 + Navitoclax; first compound 0.4 µM
  relative viability: 1.04
CAP-232 + Navitoclax; first compound 1.265 µM
  relative viability: 0.991
CAP-232 + Navitoclax; first compound 4 µM
  relative viability: 1.1
CAP-232 + Navitoclax; first compound 12.65 µM
  relative viability: 1.1
CAP-232 + Foretinib; first compound 0.4 µM
  relative viability: 1.09
CAP-232 + Foretinib; first compound 1.265 µM
  relative viability: 1.06
CAP-232 + Foretinib; first compound 4 µM
  relative viability: 1.08
CAP-232 + Foretinib; first compound 12.65 µM
  relative viability: 1.05
CAP-232 + Lapatinib; first compound 0.4 µM
  relative viability: 1.03
CAP-232 + Lapatinib; first compound 1.265 µM
  relative viability: 0.963
CAP-232 + Lapatinib; first compound 4 µM
  relative viability: 0.908
CAP-232 + Lapatinib; first compound 12.65 µM
  relative viability: 0.96
CAP-232 + Pictilisib; first compound 0.4 µM
  relative viability: 0.747
CAP-232 + Pictilisib; first compound 1.265 µM
  relative viability: 0.746
CAP-232 + Pictilisib; first compound 4 µM
  relative viability: 0.626
CAP-232 + Pictilisib; first compound 12.65 µM
  relative viability: 0.589
CAP-232 + Crizotinib; first compound 0.4 µM
  relative viability: 0.955
CAP-232 + Crizotinib; first compound 1.265 µM
  relative viability: 0.952
CAP-232 + Crizotinib; first compound 4 µM
  relative viability: 0.941
CAP-232 + Crizotinib; first compound 12.65 µM
  relative viability: 1.02
CAP-232 + Linsitinib; first compound 0.4 µM
  relative viability: 1.15
CAP-232 + Linsitinib; first compound 1.265 µM
  relative viability: 0.92
CAP-232 + Linsitinib; first compound 4 µM
  relative viability: 1.06
CAP-232 + Linsitinib; first compound 12.65 µM
  relative viability: 1.09
CAP-232 + Alpelisib; first compound 0.4 µM
  relative viability: 1.04
CAP-232 + Alpelisib; first compound 1.265 µM
  relative viability: 1.05
CAP-232 + Alpelisib; first compound 4 µM
  relative viability: 1.03
CAP-232 + Alpelisib; first compound 12.65 µM
  relative viability: 1.08
CAP-232 + Olaparib; first compound 0.4 µM
  relative viability: 0.942
CAP-232 + Olaparib; first compound 1.265 µM
  relative viability: 1.01
CAP-232 + Olaparib; first compound 4 µM
  relative viability: 0.977
CAP-232 + Olaparib; first compound 12.65 µM
  relative viability: 0.934
